We go through 21 molecules from patent US20230072683A1, “PYRIDO-PYRIMIDIN DERIVATIVES AND PHARMACEUTICAL COMPOSITION, FOR USE IN PREVENTING OR TREATING PI3 KINASE RELATED DISEASES, COMPRISING SAME AS ACTIVE INGREDIENT” (BORYUNG PHARMACEUTICAL CO., LTD, priority 2019, published 2023).

One experiment deals with DNA-PK(h) (Homo sapiens, UniProt P78527). The experiment can be described thus: Evaluation of inhibitory activity against DNA-PK (HTRF kinase assay, GST-cMyc-p53 substrate). To be noted: compound concentration 0.01 μM; read-out: EXP_VALUE(% Inhibition) DNA-PK(h) 0.01 μM. It counts as biochemical. The procedure, abridged:
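p53 Ser15 phosphorylation by human DNA-PK was measured by time-resolved FRET ratio (665/620 nm ×10000) using Eu-labelled anti-phospho-Ser15 and d2 anti-GST antibodies. Substrate GST-cMyc-p53 at 50 μM; Mg/ATP-initiated, 30 min at room temperature, EDTA stop.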

The target in experiment [1] is PI3K-δ (PI3K(p1108/p857) (h)) (Homo sapiens, UniProt O00329). Nature of the experiment: Evaluation of inhibitory activity against PI3K-δ (HTRF kinase assay). In kind it is biochemical. To be noted: compound concentration 0.01 μM; read-out: EXP_VALUE(% Inhibition) PI3K-δ 0.01 μM. In short, it runs like this:
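HTRF read-out (665/620 nm ratio ×10000) used Eu-labelled anti-GST, GST-tagged GRP1 PH domain and streptavidin-allophycocyanin after EDTA/PIP3 stop.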
(TR-FRET usually uses a lanthanide donor and a delayed reading to cut background.)

Sequence of PI3K-δ (PI3K(p1108/p857) (h)) (O00329 whole entry, the tested form may be a part): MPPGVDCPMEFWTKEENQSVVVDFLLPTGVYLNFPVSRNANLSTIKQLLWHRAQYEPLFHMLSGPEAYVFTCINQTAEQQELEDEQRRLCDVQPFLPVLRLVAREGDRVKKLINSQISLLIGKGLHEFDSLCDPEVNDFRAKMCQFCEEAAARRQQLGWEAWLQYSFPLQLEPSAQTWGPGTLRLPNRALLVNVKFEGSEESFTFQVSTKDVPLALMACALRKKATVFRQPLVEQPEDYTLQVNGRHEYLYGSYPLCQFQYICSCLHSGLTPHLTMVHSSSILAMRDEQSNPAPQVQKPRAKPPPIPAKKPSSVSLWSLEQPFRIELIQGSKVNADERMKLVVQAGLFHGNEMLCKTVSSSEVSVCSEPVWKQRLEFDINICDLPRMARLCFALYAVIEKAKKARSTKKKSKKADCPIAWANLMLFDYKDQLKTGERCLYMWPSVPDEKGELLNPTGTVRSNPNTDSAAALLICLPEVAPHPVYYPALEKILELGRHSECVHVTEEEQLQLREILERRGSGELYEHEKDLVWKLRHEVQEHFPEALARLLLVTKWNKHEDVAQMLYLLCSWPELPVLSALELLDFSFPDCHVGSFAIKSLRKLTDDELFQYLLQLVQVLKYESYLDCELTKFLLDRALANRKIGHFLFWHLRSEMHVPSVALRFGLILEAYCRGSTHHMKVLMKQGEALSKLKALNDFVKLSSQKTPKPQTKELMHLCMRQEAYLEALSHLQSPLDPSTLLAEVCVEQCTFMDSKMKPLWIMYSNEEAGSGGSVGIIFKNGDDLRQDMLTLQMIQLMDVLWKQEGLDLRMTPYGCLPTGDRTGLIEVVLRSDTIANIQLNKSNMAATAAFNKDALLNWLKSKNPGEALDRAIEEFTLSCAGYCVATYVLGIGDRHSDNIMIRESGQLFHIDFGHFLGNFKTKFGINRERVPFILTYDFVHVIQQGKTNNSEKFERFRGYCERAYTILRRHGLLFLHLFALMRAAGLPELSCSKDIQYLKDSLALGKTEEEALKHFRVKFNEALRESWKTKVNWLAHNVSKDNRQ
Sequence of PI3K-δ (PI3K(p1108/p857) (h)) (P27986 whole entry partner, the tested form may be a part): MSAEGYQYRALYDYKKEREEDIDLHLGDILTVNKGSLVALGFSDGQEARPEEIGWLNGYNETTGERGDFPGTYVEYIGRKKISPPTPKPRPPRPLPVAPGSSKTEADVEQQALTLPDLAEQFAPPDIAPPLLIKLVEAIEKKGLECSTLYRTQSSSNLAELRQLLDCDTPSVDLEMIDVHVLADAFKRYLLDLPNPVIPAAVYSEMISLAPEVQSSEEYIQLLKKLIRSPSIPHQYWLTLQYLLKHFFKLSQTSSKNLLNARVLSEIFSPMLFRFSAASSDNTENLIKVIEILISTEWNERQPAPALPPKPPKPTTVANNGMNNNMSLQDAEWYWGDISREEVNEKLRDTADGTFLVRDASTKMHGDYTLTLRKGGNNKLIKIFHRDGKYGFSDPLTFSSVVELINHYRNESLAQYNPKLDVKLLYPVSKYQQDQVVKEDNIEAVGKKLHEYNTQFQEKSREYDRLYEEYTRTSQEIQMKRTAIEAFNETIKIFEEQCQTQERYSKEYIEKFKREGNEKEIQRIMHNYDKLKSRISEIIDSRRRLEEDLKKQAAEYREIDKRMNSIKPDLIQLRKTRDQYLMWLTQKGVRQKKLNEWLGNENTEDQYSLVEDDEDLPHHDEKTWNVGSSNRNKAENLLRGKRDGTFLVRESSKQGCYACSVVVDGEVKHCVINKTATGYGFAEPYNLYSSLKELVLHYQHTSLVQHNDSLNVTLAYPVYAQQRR

For `C[C@H](Nc1ncnc2[nH]ccc(=O)c12)c1c(Cl)c2cccc(-c3ccc(N)nc3)c2c(=O)n1-c1ccccc1` [Example 172, (S)-4-((1-(8-(6-aminopyridin-3-yl)-4-chloro-1-oxo-2-phenyl-1,2-dihydroisoquinolin-3-yl)ethyl)amino)pyrido[2,3-d]pyrimidin-5(8H)-one], the inhibition at 0.01 µM at DNA-PK(h) was determined as 82%; in experiment [1], 53%.
`C[C@H](Nc1ncnc2[nH]ccc(=O)c12)c1c(Cl)c2cccc(-c3cccc(N4CCOCC4)c3)c2c(=O)n1-c1ccccc1` [Example 173, (S)-4-((1-(4-chloro-8-(3-morpholinophenyl)-1-oxo-2-phenyl-1,2-dihydroisoquinolin-3-yl)ethyl)amino)pyrido[2,3-d]pyrimidin-5(8H)-one]: the inhibition at 0.01 µM at DNA-PK(h) worked out at 86%; in experiment [1], 40%.
`C[C@H](Nc1ncnc2[nH]ccc(=O)c12)c1c(Cl)c2cccc(-c3cnc(N4CCOCC4)nc3)c2c(=O)n1-c1ccccc1` [Example 174, (S)-4-((1-(4-chloro-8-(2-morpholinopyrimidin-5-yl)-1-oxo-2-phenyl-1,2-dihydroisoquinolin-3-yl)ethyl)amino)pyrido[2,3-d]pyrimidin-5(8H)-one]: the inhibition at 0.01 µM worked out at 67% on DNA-PK(h) and 65% in experiment [1].
Regarding `C[C@H](Nc1ncnc2[nH]ccc(=O)c12)c1c(Cl)c2cccc(-c3ccc(N4CCOCC4)nc3)c2c(=O)n1-c1ccccc1` [Example 175, (S)-4-((1-(4-chloro-8-(6-morpholinopyridin-3-yl)-1-oxo-2-phenyl-1,2-dihydroisoquinolin-3-yl)ethyl)amino)pyrido[2,3-d]pyrimidin-5(8H)-one], the inhibition at 0.01 µM on DNA-PK(h) turned out to be 80%; in experiment [1], 70%.
As for `C[C@H](Nc1ncnc2[nH]ccc(=O)c12)c1c(Cl)c2cccc(-c3ccc(C4CCOCC4)cc3)c2c(=O)n1-c1ccccc1` [Example 176, (S)-4-((1-(4-chloro-1-oxo-2-phenyl-8-(4-(tetrahydro-2H-pyran-4-yl)phenyl)-1,2-dihydroisoquinolin-3-yl)ethyl)amino)pyrido[2,3-d]pyrimidin-5(8H)-one], the inhibition at 0.01 µM came out at 48% at DNA-PK(h) and 19% in experiment [1].
As for `COc1cc(-c2cccc3c(Cl)c([C@H](C)Nc4ncnc5[nH]ccc(=O)c45)n(-c4ccccc4)c(=O)c23)cc(OC)c1C` [Example 177, (S)-4-((1-(4-chloro-8-(3,5-dimethoxy-4-methylphenyl)-1-oxo-2-phenyl-1,2-dihydroisoquinolin-3-yl)ethyl)amino)pyrido[2,3-d]pyrimidin-5(8H)-one], the inhibition at 0.01 µM on DNA-PK(h) was found to be 54%; in experiment [1] it was 28%.
`C[C@H](Nc1ncnc2[nH]ccc(=O)c12)c1c(Cl)c2cccc(-c3ccc([Si](C)(C)C)cc3)c2c(=O)n1-c1ccccc1` [Example 178, (S)-4-((1-(4-chloro-1-oxo-2-phenyl-8-(4-(trimethylsilyl)phenyl)-1,2-dihydroisoquinolin-3-yl)ethyl)amino)pyrido[2,3-d]pyrimidin-5(8H)-one]: the inhibition at 0.01 µM on DNA-PK(h) was -4%; in experiment [1], 9%.
Take `C[C@H](Nc1ncnc2[nH]ccc(=O)c12)c1c(Cl)c2cccc(-c3ccc(N4CCN(C)CC4)cc3)c2c(=O)n1-c1ccccc1` [Example 179, (S)-4-((1-(4-chloro-8-(4-(4-methylpiperazin-1-yl)phenyl)-1-oxo-2-phenyl-1,2-dihydroisoquinolin-3-yl)ethyl)amino)pyrido[2,3-d]pyrimidin-5(8H)-one]: the inhibition at 0.01 µM on DNA-PK(h) stood at 91%; in experiment [1] it was 86%.
Taken in the same sequence, the figures for `CC(C)Oc1cc(-c2cccc3c(Cl)c([C@H](C)Nc4ncnc5[nH]ccc(=O)c45)n(-c4ccccc4)c(=O)c23)ccn1` [Example 180, (S)-4-((1-(4-chloro-8-(2-isopropoxypyridin-4-yl)-1-oxo-2-phenyl-1,2-dihydroisoquinolin-3-yl)ethyl)amino)pyrido[2,3-d]pyrimidin-5(8H)-one] were 59% and 83%.
As for `C[C@H](Nc1ncnc2[nH]ccc(=O)c12)c1c(Cl)c2cccc(-c3ccc(C(F)(F)F)nc3)c2c(=O)n1-c1ccccc1` [Example 181, (S)-4-((1-(4-chloro-1-oxo-2-phenyl-8-(6-(trifluoromethyl)pyridin-3-yl)-1,2-dihydroisoquinolin-3-yl)ethyl)amino)pyrido[2,3-d]pyrimidin-5(8H)-one], the values for the inhibition at 0.01 µM (on DNA-PK(h); in experiment [1]) were 61% and 101%, respectively.
On to `CC(C)Oc1ncc(-c2cccc3c(Cl)c([C@H](C)Nc4ncnc5[nH]ccc(=O)c45)n(-c4ccccc4)c(=O)c23)cn1` [Example 182, (S)-4-((1-(4-chloro-8-(2-isopropoxypyrimidin-5-yl)-1-oxo-2-phenyl-1,2-dihydroisoquinolin-3-yl)ethyl)amino)pyrido[2,3-d]pyrimidin-5(8H)-one], for which the inhibition at 0.01 µM came out at 64% at DNA-PK(h) and 85% in experiment [1].
`CCOc1ccc(-c2cccc3c(Cl)c([C@H](C)Nc4ncnc5[nH]ccc(=O)c45)n(-c4ccccc4)c(=O)c23)cn1` [Example 183, (S)-4-((1-(4-chloro-8-(6-ethoxypyridin-3-yl)-1-oxo-2-phenyl-1,2-dihydroisoquinolin-3-yl)ethyl)amino)pyrido[2,3-d]pyrimidin-5(8H)-one]: the inhibition at 0.01 µM at DNA-PK(h) amounted to 68%; in experiment [1], 85%.
As for `C[C@H](Nc1ncnc2[nH]ccc(=O)c12)c1c(Cl)c2cccc(-c3cnc(OCC(F)(F)F)nc3)c2c(=O)n1-c1ccccc1` [Example 184, (S)-4-((1-(4-chloro-1-oxo-2-phenyl-8-(2-(2,2,2-trifluoroethoxy)pyrimidin-5-yl)-1,2-dihydroisoquinolin-3-yl)ethyl)amino)pyrido[2,3-d]pyrimidin-5(8H)-one], the inhibition at 0.01 µM at DNA-PK(h) is 38%; in experiment [1] it was 78%.
As to `C[C@H](Nc1ncnc2[nH]ccc(=O)c12)c1c(Cl)c2cccc(-c3ccc(Oc4ccccc4)nc3)c2c(=O)n1-c1ccccc1` [Example 185, (S)-4-((1-(4-chloro-1-oxo-8-(6-phenoxypyridin-3-yl)-2-phenyl-1,2-dihydroisoquinolin-3-yl)ethyl)amino)pyrido[2,3-d]pyrimidin-5(8H)-one], the figures for the inhibition at 0.01 µM (on DNA-PK(h); in experiment [1]) were 33% and 95%, respectively.
In the case of `COc1ncc(-c2cccc3c(Cl)c([C@H](C)Nc4ncnc5[nH]ccc(=O)c45)n(-c4ccccc4)c(=O)c23)cc1F` [Example 186, (S)-4-((1-(4-chloro-8-(5-fluoro-6-methoxypyridin-3-yl)-1-oxo-2-phenyl-1,2-dihydroisoquinolin-3-yl)ethyl)amino)pyrido[2,3-d]pyrimidin-5(8H)-one], the values for the inhibition at 0.01 µM (on DNA-PK(h); in experiment [1]) were 49% and 94%, respectively.
On to `COc1ncc(-c2cccc3c(Cl)c([C@H](C)Nc4ncnc5[nH]ccc(=O)c45)n(-c4ccccc4)c(=O)c23)cc1Cl` [Example 187, (S)-4-((1-(4-chloro-8-(5-chloro-6-methoxypyridin-3-yl)-1-oxo-2-phenyl-1,2-dihydroisoquinolin-3-yl)ethyl)amino)pyrido[2,3-d]pyrimidin-5(8H)-one], for which the inhibition at 0.01 µM on DNA-PK(h) amounted to 45%; in experiment [1], 79%.
As to `CCOc1ncc(-c2cccc3c(Cl)c([C@H](C)Nc4ncnc5[nH]ccc(=O)c45)n(-c4ccccc4)c(=O)c23)cn1` [Example 188, (S)-4-((1-(4-chloro-8-(2-ethoxypyrimidin-5-yl)-1-oxo-2-phenyl-1,2-dihydroisoquinolin-3-yl)ethyl)amino)pyrido[2,3-d]pyrimidin-5(8H)-one], the inhibition at 0.01 µM came out at 67% on DNA-PK(h) and 101% in experiment [1].
As to `C[C@H](Nc1ncnc2[nH]ccc(=O)c12)c1c(Cl)c2cccc(-c3ccnc(N4CCOCC4)c3)c2c(=O)n1-c1ccccc1` [Example 190, (S)-4-((1-(4-chloro-8-(2-morpholinopyridin-4-yl)-1-oxo-2-phenyl-1,2-dihydroisoquinolin-3-yl)ethyl)amino)pyrido[2,3-d]pyrimidin-5(8H)-one], the inhibition at 0.01 µM on DNA-PK(h) stood at 85%; in experiment [1], 87%.
For `COc1ccc(-c2cccc3c(Cl)c([C@H](C)Nc4ncnc5[nH]ccc(=O)c45)n(-c4ccccc4)c(=O)c23)cc1F` [Example 191, (S)-4-((1-(4-chloro-8-(3-fluoro-4-methoxyphenyl)-1-oxo-2-phenyl-1,2-dihydroisoquinolin-3-yl)ethyl)amino)pyrido[2,3-d]pyrimidin-5(8H)-one], the inhibition at 0.01 µM worked out at 102% at DNA-PK(h) and 85% in experiment [1].
With `C[C@H](Nc1ncnc2[nH]ccc(=O)c12)c1c(Cl)c2cccc(-c3cc(F)c4c(c3)NCCO4)c2c(=O)n1-c1ccccc1` [Example 192, (S)-4-((1-(4-chloro-8-(8-fluoro-3,4-dihydro-2H-benzo[b] [1,4]oxazin-6-yl)-1-oxo-2-phenyl-1,2-dihydroisoquinolin-3-yl)ethyl)amino)pyrido[2,3-d]pyrimidin-5(8H)-one], the inhibition at 0.01 µM came to 25% at DNA-PK(h) and 72% in experiment [1].
`CC(C)NC(=O)c1ccc(-c2cccc3c(Cl)c([C@H](C)Nc4ncnc5[nH]ccc(=O)c45)n(-c4ccccc4)c(=O)c23)cc1` [Example 193, (S)-4-(4-chloro-1-oxo-3-(1-((5-oxo-5,8-dihydropyrido[2,3-d]pyrimidin-4-yl)amino)ethyl)-2-phenyl-1,2-dihydroisoquinolin-8-yl)-N-isopropylbenzamide]: the inhibition at 0.01 µM at DNA-PK(h) came out at 71%; in experiment [1] it was 72%.

For orientation: inhibition means the relative decrease from the control value, in per cent.
